Data from ChEMBL document CHEMBL1201862, “PubChem BioAssay data set” (2004).
Values belong to the compound of their own block, whether it stands above or below them. Calls of active or inactive are those of the source.

What was measured:
[1] = biological target: Tyrosine-protein kinase Lck (Homo sapiens, UniProt P06239); type: functional;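 further: lck was assayed as one member of a kinase panel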
Aurora kinase A = biological target: T1, Aurora kinase A (Homo sapiens, UniProt O14965); type: functional;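 further: value from the Navigating the Kinome kinase panel profiling, panel entry STK6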
T1 sequence (O14965 whole entry): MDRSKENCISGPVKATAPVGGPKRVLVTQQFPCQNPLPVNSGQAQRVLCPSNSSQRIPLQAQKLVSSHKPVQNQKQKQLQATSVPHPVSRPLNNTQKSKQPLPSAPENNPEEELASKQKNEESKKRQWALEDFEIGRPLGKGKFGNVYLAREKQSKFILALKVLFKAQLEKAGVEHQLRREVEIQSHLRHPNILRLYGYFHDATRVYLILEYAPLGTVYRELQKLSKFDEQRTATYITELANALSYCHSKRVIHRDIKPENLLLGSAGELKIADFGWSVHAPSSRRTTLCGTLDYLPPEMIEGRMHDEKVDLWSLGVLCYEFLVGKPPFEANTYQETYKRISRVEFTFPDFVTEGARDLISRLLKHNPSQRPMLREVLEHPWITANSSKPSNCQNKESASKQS

LIM domain kinase 1 = LIM domain kinase 1 (Homo sapiens, UniProt P53667); test: Navigating the Kinome. Panel member name: LIMK1; type: functional
Insulin-degrading enzyme = biological target: T2, Insulin-degrading enzyme (Homo sapiens, UniProt P14735); test: cellular IDE activation of Abeta substrate cleavage – fluorescence polarization, HEK cells, dose response (AID 588439); type: functional, cell-based
T2 sequence (P14735 whole entry): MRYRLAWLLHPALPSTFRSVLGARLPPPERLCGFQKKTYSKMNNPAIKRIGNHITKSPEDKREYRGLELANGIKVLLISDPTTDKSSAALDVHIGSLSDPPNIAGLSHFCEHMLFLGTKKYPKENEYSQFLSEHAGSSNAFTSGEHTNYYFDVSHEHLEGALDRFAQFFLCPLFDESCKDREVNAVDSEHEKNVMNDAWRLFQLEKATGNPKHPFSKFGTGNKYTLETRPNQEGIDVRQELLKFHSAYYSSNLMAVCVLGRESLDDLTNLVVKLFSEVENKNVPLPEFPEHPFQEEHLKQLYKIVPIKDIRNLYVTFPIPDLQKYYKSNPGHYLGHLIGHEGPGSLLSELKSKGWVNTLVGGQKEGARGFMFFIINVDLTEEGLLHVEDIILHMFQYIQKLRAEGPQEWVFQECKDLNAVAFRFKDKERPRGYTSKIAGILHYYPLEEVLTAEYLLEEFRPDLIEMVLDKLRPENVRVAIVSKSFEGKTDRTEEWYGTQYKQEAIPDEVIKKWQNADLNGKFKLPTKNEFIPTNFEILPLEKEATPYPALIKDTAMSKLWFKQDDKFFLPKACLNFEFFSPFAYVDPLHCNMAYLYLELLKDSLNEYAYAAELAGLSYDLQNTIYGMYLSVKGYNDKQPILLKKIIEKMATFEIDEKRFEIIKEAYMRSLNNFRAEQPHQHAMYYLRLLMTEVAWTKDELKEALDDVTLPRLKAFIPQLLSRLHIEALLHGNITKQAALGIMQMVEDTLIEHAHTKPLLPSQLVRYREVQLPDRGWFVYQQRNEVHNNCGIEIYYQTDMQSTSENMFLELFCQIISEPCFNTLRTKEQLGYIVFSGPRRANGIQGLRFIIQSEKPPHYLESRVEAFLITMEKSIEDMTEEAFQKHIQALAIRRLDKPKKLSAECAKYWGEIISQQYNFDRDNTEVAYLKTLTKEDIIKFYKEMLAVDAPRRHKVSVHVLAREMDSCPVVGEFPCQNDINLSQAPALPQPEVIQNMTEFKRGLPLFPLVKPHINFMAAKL

[2] = biological target: Ribosomal protein S6 kinase alpha-3 (Homo sapiens, UniProt P51812); type: functional;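 further: measured within a kinome-wide profiling panel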
[3] = biological target: Serine/threonine-protein kinase PLK3 (Homo sapiens, UniProt Q9H4B4); type: functional
[4] = biological target: RAC-gamma serine/threonine-protein kinase (Homo sapiens, UniProt Q9Y243); type: functional
SRSF protein kinase 1 = SRSF protein kinase 1 (Homo sapiens, UniProt Q96SB4); type: functional;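 further: measured as one member of a kinome-wide kinase profiling panel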
SRSF protein kinase 1, sequence (Q96SB4 whole entry): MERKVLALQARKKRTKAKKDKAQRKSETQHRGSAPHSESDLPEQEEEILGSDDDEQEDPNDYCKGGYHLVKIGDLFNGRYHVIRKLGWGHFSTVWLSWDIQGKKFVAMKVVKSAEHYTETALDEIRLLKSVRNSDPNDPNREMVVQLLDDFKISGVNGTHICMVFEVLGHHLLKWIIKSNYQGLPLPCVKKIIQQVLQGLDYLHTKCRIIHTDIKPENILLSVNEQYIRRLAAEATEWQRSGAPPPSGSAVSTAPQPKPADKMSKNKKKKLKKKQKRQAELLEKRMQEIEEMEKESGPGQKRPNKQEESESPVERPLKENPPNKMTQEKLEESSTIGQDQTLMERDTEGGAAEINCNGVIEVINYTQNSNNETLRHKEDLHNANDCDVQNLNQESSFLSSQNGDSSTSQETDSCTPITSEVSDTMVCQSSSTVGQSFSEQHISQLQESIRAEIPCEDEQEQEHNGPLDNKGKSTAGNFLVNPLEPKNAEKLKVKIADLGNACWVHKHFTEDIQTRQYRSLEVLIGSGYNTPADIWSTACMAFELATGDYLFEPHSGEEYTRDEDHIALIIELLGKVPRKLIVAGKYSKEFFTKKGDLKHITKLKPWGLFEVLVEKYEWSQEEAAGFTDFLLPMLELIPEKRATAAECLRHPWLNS

[5] = biological target: Calcium/calmodulin-dependent protein kinase type II subunit delta (Homo sapiens, UniProt Q13557); type: functional
Calcium/calmodulin-dependent protein kinase type II subunit delta, sequence (Q13557 whole entry): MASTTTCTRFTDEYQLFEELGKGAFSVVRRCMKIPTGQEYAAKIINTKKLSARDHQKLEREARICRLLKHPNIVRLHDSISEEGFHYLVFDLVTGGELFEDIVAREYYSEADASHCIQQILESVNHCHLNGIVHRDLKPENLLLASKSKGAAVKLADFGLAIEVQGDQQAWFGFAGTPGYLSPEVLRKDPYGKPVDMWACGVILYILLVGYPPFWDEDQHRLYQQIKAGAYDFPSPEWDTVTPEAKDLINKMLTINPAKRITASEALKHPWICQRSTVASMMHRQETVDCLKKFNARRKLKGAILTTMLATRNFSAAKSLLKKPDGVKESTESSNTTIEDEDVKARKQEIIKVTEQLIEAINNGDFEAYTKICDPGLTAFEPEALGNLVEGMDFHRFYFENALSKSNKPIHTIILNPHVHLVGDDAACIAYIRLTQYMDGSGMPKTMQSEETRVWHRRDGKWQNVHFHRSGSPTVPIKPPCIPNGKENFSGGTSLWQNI

[6] = biological target: MAP/microtubule affinity-regulating kinase 3 (Homo sapiens, UniProt P27448); type: functional;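 further: MARK3 affinity measured as one member of a kinome panel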
[7] = biological target: Mitogen-activated protein kinase kinase kinase 20 (Homo sapiens, UniProt Q9NYL2); type: functional
[8] = biological target: Protein kinase C gamma type (Homo sapiens, UniProt P05129); type: functional
[9] = biological target: MAP kinase-activated protein kinase 3 (Homo sapiens, UniProt Q16644); type: functional;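 further: value comes from a kinome-wide profiling panel in which MAPKAPK3 is one of the panel members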
[10] = biological target: Mitogen-activated protein kinase 1 (Homo sapiens, UniProt P28482); type: functional
Mitogen-activated protein kinase 1, sequence (P28482 whole entry): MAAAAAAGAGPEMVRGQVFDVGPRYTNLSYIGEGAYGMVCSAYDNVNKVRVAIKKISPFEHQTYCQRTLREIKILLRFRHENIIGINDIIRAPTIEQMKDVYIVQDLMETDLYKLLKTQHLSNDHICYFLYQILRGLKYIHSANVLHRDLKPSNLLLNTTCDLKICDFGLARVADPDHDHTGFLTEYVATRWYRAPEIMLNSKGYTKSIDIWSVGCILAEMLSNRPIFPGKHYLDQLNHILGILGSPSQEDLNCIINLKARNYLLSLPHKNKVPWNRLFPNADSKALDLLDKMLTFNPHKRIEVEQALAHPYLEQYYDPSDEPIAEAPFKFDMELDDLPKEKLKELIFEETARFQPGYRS

[11] = biological target: Protein kinase C iota type (Homo sapiens, UniProt P41743); type: functional;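 further: measured within a kinome-wide kinase panel, PRKCI as panel member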
Protein kinase C iota type, sequence (P41743 whole entry): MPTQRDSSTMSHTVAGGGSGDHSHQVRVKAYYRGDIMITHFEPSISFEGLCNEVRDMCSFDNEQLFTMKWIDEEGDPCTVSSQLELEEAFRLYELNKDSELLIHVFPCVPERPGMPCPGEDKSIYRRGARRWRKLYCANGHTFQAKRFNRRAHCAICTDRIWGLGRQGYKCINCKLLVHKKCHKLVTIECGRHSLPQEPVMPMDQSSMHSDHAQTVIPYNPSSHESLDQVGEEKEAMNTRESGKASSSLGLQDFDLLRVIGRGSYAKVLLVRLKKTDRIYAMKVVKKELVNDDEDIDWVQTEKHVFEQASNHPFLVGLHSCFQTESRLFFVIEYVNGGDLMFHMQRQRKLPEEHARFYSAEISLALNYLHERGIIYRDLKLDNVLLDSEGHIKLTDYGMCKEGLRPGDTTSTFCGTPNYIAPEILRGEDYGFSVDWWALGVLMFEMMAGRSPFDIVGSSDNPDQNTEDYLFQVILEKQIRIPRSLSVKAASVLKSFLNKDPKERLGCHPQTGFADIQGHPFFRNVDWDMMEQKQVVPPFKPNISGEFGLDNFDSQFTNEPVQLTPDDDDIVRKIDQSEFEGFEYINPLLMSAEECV

[12] = biological target: Vascular endothelial growth factor receptor 3 (Homo sapiens, UniProt P35916); type: functional;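 further: value from a kinome-wide profiling panel, with FLT4 as the panel member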
Vascular endothelial growth factor receptor 3, sequence (P35916 whole entry): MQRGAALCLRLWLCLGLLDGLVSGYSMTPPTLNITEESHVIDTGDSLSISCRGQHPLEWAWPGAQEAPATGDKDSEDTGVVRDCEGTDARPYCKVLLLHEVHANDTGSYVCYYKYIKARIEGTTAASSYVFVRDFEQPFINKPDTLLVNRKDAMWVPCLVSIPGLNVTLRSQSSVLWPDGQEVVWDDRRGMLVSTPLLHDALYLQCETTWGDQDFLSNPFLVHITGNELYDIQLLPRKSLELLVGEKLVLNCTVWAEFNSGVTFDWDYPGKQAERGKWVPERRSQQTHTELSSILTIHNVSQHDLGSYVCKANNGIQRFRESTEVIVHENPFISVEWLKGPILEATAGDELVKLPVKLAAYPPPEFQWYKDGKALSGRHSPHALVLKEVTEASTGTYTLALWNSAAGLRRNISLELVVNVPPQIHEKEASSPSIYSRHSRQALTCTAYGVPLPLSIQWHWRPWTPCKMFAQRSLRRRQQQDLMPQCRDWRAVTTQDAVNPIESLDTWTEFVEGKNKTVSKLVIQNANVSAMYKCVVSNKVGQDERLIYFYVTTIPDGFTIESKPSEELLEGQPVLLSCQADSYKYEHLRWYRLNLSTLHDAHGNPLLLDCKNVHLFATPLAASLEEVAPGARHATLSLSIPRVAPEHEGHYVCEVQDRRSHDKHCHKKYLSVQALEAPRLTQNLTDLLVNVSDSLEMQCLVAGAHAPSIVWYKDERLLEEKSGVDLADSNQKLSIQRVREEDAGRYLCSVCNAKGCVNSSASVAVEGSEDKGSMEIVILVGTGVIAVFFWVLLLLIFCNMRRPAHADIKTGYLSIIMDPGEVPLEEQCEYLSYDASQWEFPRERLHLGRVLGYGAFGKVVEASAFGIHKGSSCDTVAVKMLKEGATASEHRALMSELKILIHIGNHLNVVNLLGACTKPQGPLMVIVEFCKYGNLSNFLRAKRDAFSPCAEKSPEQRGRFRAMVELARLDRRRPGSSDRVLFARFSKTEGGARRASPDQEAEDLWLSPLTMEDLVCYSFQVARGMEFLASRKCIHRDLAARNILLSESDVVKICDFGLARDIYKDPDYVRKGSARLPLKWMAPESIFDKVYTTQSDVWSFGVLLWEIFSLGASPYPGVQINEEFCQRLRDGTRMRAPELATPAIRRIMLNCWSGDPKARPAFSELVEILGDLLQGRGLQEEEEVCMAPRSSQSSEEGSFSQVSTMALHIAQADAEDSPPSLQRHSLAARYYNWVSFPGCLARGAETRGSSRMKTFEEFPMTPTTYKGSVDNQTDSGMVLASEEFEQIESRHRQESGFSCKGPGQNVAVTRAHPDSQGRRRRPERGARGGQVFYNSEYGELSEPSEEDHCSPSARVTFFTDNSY

[13] = biological target: Calcium/calmodulin-dependent protein kinase type 1 (Homo sapiens, UniProt Q14012); type: functional
Calcium/calmodulin-dependent protein kinase type 1, sequence (Q14012 whole entry): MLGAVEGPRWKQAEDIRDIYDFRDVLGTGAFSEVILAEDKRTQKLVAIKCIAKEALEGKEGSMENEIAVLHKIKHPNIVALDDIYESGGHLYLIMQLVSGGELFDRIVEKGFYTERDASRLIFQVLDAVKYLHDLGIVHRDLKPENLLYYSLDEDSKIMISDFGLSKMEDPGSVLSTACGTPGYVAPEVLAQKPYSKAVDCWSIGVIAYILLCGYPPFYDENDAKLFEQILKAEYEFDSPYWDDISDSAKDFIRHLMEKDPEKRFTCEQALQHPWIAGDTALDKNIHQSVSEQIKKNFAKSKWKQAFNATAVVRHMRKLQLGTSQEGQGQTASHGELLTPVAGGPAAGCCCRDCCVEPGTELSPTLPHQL

[14] = biological target: Mitogen-activated protein kinase 12 (Homo sapiens, UniProt P53778); type: functional;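 further: measured as one member of a kinome-wide kinase profiling panel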
Mitogen-activated protein kinase 12, sequence (P53778 whole entry): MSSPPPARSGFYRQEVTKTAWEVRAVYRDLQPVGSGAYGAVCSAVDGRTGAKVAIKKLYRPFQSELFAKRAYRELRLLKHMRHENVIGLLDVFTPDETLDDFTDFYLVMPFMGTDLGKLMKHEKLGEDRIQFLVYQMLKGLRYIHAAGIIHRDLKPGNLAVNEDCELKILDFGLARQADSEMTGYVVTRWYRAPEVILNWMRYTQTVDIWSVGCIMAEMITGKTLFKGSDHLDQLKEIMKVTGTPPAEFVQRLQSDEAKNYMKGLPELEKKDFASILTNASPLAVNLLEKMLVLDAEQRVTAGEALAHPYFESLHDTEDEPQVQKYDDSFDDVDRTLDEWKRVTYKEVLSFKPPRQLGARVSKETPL

- Ki [1]: > 6310 nM (inactive)
- Ki (Aurora kinase A): > 1580 nM (inactive)
- Ki (LIM domain kinase 1): > 3160 nM (inactive)
SMILES: COc1cccc(CNC(=O)c2cnc(-c3ccncc3)nc2)c1

SMILES: CCN(CC)CCCC(C)n1c2nc(=O)[nH]c(=O)c-2nc2cc(Cl)ccc21 (configuration not stated)
- EC50 (Insulin-degrading enzyme): > 54700 nM (inactive)

- Ki [2]: 100 nM (active)
- pKi [2]: 7
- Ki [3]: > 7940 nM (inactive)
- Ki [4]: > 10000 nM (inactive)
- Ki (SRSF protein kinase 1): 1000 nM (active)
- pKi (SRSF protein kinase 1): 6
- Ki [5]: 63.1 nM (active)
- pKi [5]: 7.2
- Ki [6]: 50.1 nM (active)
- pKi [6]: 7.3
- Ki [7]: > 7940 nM (inactive)
- Ki [8]: 200 nM (active)
- pKi [8]: 6.7
- Ki [9]: > 10000 nM (inactive)
- Ki [10]: 50.1 nM (active)
- pKi [10]: 7.3
- Ki [11]: 2510 nM (active)
- pKi [11]: 5.6
- Ki [12]: 200 nM (active)
- pKi [12]: 6.7
- Ki [13]: > 794 nM (inactive)
- Ki [14]: 158 nM (active)
- pKi [14]: 6.8
SMILES: OC1CCC(Nc2nc(Cl)cc(-c3c[nH]c4ncccc34)n2)CC1 (configuration not stated)
